Assay results taken from paper PMC4658637 (2015).
Values belong to the molecule of their own block, whether it stands above or below them.

Assays:
[1] = tested on: SPR-c-kit2 (DNA, G4) GGGCGGGCGCGAGGGAGGGG; assay: SPR; details: 100 mM K+ (KCl); 50 mM Tris-HCl, pH 7.2, 25 °C; Langmuir kinetic fit
[2] = tested on: c-kit2-Ap4 (DNA, G4, 2-aminopurine at 4 (replaces C)) GGGCGGGCGCGAGGGAGGGG; assay: 2-aminopurine fluorescence titration; details: 100 mM K+ (KCl); 10 mM Tris-HCl, pH 7.2; 1 μM DNA, 0-10 μM compound
[3] = tested on: htg22 (DNA, G4) AGGGTTAGGGTTAGGGTTAGGG; assay: fluorescence titration; details: 100 mM K+ (KCl); 10 mM Tris-HCl, pH 7.2; much weaker light-up, up to 5 μM DNA
[4] = tested on: TBA (DNA, G4) GGTTGGTGTGGTTGG; assay: fluorescence titration; details: 100 mM K+ (KCl); 10 mM Tris-HCl, pH 7.2; much weaker light-up, up to 5 μM DNA
[5] = tested on: HRAS-Ap21 (DNA, G4, 2-aminopurine at 21) TCGGGTTGCGGGCGCAGGGCACGGGCG; assay: 2-aminopurine fluorescence titration; details: 100 mM K+ (KCl); 10 mM Tris-HCl, pH 7.2; 1 μM DNA, 0-10 μM compound
[6] = tested on: HT-L2H (DNA, G4) TTGGGTTAGGGTTAGGGTTAGGGA; assay: fluorescence titration; details: 100 mM K+ (KCl); 10 mM Tris-HCl, pH 7.2; much weaker light-up, up to 5 μM DNA
[7] = tested on: bcl-2 (DNA, G4) GGGCGGGCGCGGGAGGAAGGGGGCGGG; assay: fluorescence titration; details: 100 mM K+ (KCl); 10 mM Tris-HCl, pH 7.2; strong light-up of 15 at 525 nm
[8] = tested on: KRAS (DNA, G4) AGGGCGGTGTGGGAAGAGGGAAGAGGGGGAGG; assay: fluorescence titration; details: 100 mM K+ (KCl); 10 mM Tris-HCl, pH 7.2; strong light-up of 15 at 525 nm
[9] = tested on: HRAS-Ap7 (DNA, G4, 2-aminopurine at 7 (replaces T)) TCGGGTTGCGGGCGCAGGGCACGGGCG; assay: 2-aminopurine fluorescence titration; details: 100 mM K+ (KCl); 10 mM Tris-HCl, pH 7.2; 1 μM DNA, 0-10 μM compound
[10] = tested on: c-kit2-Ap16 (DNA, G4, 2-aminopurine at 16) GGGCGGGCGCGAGGGAGGGG; assay: 2-aminopurine fluorescence titration; details: 100 mM K+ (KCl); 10 mM Tris-HCl, pH 7.2; 1 μM DNA, 0-10 μM compound
[11] = tested on: c-kit3 (DNA, G4) GGCGAGGAGGGGCGTGGCCGGC; assay: fluorescence titration; details: 100 mM K+ (KCl); 10 mM Tris-HCl, pH 7.2; much weaker light-up, up to 5 μM DNA
[12] = tested on: c-kit2-Ap12 (DNA, G4, 2-aminopurine at 12) GGGCGGGCGCGAGGGAGGGG; assay: 2-aminopurine fluorescence titration; details: 100 mM K+ (KCl); 10 mM Tris-HCl, pH 7.2; 1 μM DNA, 0-10 μM compound
[13] = tested on: HRAS (DNA, G4) TCGGGTTGCGGGCGCAGGGCACGGGCG; assay: fluorescence titration; details: 100 mM K+ (KCl); 10 mM Tris-HCl, pH 7.2; much weaker light-up, up to 5 μM DNA
[14] = tested on: Pu22 (DNA, G4) TGAGGGTGGGTAGGGTGGGTAA; assay: fluorescence titration; details: 100 mM K+ (KCl); 10 mM Tris-HCl, pH 7.2; strong light-up of 15 at 525 nm
[15] = tested on: c-kit2 (DNA, G4) GGGCGGGCGCGAGGGAGGGG; assay: fluorescence titration; details: 100 mM K+ (KCl); 10 mM Tris-HCl, pH 7.2; strong light-up of 15 at 525 nm
[16] = tested on: HRAS-Ap16 (DNA, G4, 2-aminopurine at 16) TCGGGTTGCGGGCGCAGGGCACGGGCG; assay: 2-aminopurine fluorescence titration; details: 100 mM K+ (KCl); 10 mM Tris-HCl, pH 7.2; 1 μM DNA, 0-10 μM compound

KD [1]: 13.9 µM
Compound: C#CCOc1ccc(-c2[nH]c(-c3cc4ccc(N(CC)CC)cc4oc3=O)nc2-c2ccc(OCCCN(CC)CC)cc2)cc1

binding [2]: yes
binding [3]: weak
KD [1]: 6.1 µM
binding [4]: weak
binding [5]: weak
binding [6]: weak
binding [7]: yes
binding [8]: yes
binding [9]: weak
binding [10]: yes
binding [11]: weak
binding [12]: yes
binding [13]: weak
binding [14]: yes
binding [15]: yes
binding [16]: weak
Compound: CCN(CC)CCCOc1ccc(-c2nc(-c3cc4ccc(N(CC)CC)cc4oc3=O)[nH]c2-c2ccc(OCc3cn(CCC(=O)O)nn3)cc2)cc1

KD [1]: 4.3 µM
Compound: CCN(CC)CCCOc1ccc(-c2nc(-c3cc4ccc(N(CC)CC)cc4oc3=O)[nH]c2-c2ccc(OCc3cn(CCCN(C)C)nn3)cc2)cc1

binding [2]: yes
KD [1]: 2.0 µM
binding [5]: yes
binding [9]: yes
binding [10]: yes
Compound: CCN(CC)CCCOc1ccc(-c2nc(-c3cc4ccc(N(CC)CC)cc4oc3=O)[nH]c2-c2ccc(OCc3cn(CCCN4CCN(C)CC4)nn3)cc2)cc1

KD [1]: 3.1 µM
Compound: CCN(CC)CCCOc1ccc(-c2nc(-c3cc4ccc(N(CC)CC)cc4oc3=O)[nH]c2-c2ccc(OCc3cn(CCCO)nn3)cc2)cc1

KD [1]: 2.7 µM
Compound: CCN(CC)CCCOc1ccc(-c2nc(-c3cc4ccc(N(CC)CC)cc4oc3=O)[nH]c2-c2ccc(OCc3cn(CCN(C)C)nn3)cc2)cc1

KD [1]: 1.8 µM
Compound: CCN(CC)CCCOc1ccc(-c2nc(-c3cc4ccc(N(CC)CC)cc4oc3=O)[nH]c2-c2ccc(OCc3cn(CCN4CCCCC4)nn3)cc2)cc1

KD [1]: 4.8 µM
Compound: CCN(CC)CCCOc1ccc(-c2nc(-c3cc4ccc(N(CC)CC)cc4oc3=O)[nH]c2-c2ccc(OCc3cn(CCN4CCOCC4)nn3)cc2)cc1
